Test results published in patent US20220257532A1 (priority 2017, published 2022).
“Also recorded” adds a separate entry of the source. Where two headings read alike, the source gives them in different places.

Tests used:
[1] = target: BACE1 (β-secretase, recombinant human enzyme) (Homo sapiens, UniProt P56817); test: biochemical; assay type: biochemical; settings: for Inhibition type BACE1: Dixon plot and Lineweaver plot; for BACE1 IC50 compared with quercetin, in words: positive control quercetin
BACE1 (β-secretase, recombinant human enzyme), sequence (P56817 46-501): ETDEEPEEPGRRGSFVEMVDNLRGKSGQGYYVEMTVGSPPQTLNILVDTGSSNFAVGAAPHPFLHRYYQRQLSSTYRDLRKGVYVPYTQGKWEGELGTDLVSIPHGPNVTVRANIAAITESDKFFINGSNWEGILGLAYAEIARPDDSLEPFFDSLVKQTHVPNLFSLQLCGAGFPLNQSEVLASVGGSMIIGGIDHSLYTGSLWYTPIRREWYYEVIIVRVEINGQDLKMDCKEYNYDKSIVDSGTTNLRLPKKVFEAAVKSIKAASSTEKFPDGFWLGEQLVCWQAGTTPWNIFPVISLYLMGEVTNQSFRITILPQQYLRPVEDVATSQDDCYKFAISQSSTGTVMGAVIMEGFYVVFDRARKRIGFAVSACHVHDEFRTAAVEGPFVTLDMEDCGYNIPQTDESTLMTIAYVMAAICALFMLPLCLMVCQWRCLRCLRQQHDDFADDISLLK
Protocol: A BACE1 fluorescence resonance energy transfer (FRET) assay kit (β-secretase, recombinant human enzyme) was purchased from Pan Vera Co. (Madison, Wis., USA).
BACE1 is an enzyme promotive of the production of β-amyloid, which destroys neurons. In order to examine the effects on the compounds of Table 1 on the activity of BACE1, IC(inhibition concentrations)50 values were determined by measuring BACE1 activity in vitro according to Experimental Methods.

[2] = target: T1, acetylcholinesterase (AChE, EC3.1.1.7) (Electrophorus electricus, UniProt O42275); test: In vitro cholinesterase activity assay (Ellman) and enzyme kinetics, AChE; assay type: biochemical; settings: for Inhibition type Acetylcholinesterase: Dixon plot and Lineweaver plot; for AChE inhibition / IC50 rank, in words: among the compounds tested
T1 construct: purchased Sigma-Aldrich Co. (St. Louis, Mo., USA)
T1 sequence (O42275 24-633): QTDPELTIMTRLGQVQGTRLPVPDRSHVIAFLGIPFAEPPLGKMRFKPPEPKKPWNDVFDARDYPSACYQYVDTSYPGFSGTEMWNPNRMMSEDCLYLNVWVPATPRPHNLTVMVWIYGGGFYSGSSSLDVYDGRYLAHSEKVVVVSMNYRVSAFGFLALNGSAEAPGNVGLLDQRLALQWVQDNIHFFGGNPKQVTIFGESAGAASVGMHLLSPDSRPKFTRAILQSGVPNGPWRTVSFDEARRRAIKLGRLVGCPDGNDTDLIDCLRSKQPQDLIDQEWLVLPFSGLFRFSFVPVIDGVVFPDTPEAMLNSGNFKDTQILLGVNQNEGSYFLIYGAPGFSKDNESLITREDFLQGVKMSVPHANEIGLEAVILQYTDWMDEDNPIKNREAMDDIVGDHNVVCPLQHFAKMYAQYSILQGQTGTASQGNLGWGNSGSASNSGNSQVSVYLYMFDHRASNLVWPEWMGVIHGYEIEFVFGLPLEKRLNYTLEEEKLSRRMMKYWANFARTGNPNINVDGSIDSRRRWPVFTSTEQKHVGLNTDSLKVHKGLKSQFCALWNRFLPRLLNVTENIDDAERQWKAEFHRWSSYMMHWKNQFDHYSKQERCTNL
Protocol: (§1) The reaction started with the addition of 10 μL of DTNB and 10 μL of Ach or Bch.
(§2) Briefly, the basis for this assay is the hydrolysis of acetylthiocholine by acetylcholinesterase, producing thiocholine that reacts with DTNB. […] Degrees of inhibition were calculated according to […] wherein E and S represent enzyme activities in the presence and absence of a test sample, respectively.
(§3) The compounds of Table 1 were evaluated for anti-Alzheimer activity. In this regard, inhibitory activity against AChE (acetylcholinesterase) and BChE (butyrylcholinesterase), which lyse acetylcholine in the central nervous system, was measured according to the Experimental Method to calculate IC(inhibition concentrations)50 values.

[3] = target: T2, butyrylcholinesterase (BChE, EC3.1.1.8) (Equus caballus, UniProt P81908); test: In vitro cholinesterase activity assay (Ellman) and enzyme kinetics, BChE; assay type: biochemical; settings: for Inhibition type Butyrylcholinesterase: Dixon plot and Lineweaver plot; for SI selectivity index (BChE/AChE): ratio of IC50 BChE/AChE; for BChE inhibition / IC50 rank, in words: among the compounds tested
T2 construct: horse serum butyrylcholinesterase (BChE, EC3.1.1.8); purchased Sigma-Aldrich Co. (St. Louis, Mo., USA); host or cells: horse serum
T2 sequence (P81908 whole entry): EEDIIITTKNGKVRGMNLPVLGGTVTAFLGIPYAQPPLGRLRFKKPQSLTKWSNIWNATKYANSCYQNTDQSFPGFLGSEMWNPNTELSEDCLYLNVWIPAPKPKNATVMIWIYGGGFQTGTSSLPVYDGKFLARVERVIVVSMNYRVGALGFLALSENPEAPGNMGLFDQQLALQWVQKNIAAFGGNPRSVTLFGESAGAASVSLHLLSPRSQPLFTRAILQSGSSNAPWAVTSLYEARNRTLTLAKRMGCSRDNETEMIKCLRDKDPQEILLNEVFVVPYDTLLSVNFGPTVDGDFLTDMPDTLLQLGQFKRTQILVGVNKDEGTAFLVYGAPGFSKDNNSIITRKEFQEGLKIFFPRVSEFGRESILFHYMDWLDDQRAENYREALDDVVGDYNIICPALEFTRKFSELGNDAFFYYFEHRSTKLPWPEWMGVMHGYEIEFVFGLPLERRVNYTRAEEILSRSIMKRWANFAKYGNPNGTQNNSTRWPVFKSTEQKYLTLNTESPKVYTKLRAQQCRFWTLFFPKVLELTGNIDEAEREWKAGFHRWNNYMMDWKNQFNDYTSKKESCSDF
Protocol: as §1, §2, §3

[4] = tested on: B16F10 (mouse melanoma cell-line); test: MTT cytotoxicity assay, cancerous cell line; assay type: cell-based; settings: for LD50 Cancer cell 816F10: MTT, incubated for 48 hours with compound; for toxicity to cancerous cells, in words: conclusion from LD50, MTT
Protocol: (§4) Mouse fibroblast cell line NIH3T3 and mouse melanoma cell line B16F10 were separately seeded at a density of 1×10^3 cells/well into 96-well plates and grown in DMEM supplemented with 10% FBS (fetal bovine serum) at 37° C. in a 5% CO2 atmosphere. The cells in each cell were incubated for 24 hours with predetermined concentrations of each of the compounds (pterosin A, pterosin B, pterosin C, pterosin D, pterosin P, pterosin Z, pteroside A, pteroside A2, pteroside B, pteroside C isomers, pteroside D, pteroside N, pteroside P, and pteroside Z) and then for 2 hours with 100 μL of MTT (0.5 mg/ml PBS). After aspiration of the medium from each well, incubation was conducted for 10 min with 100 μL of DMSO. Absorbance at 570 nm was read using a microplate reader (SPCTRA MAX 340PC, Molecular Devices, USA). Absorbance is an index accounting for a number of viable cells and was used to calculate cell proliferation rates according to the following formula. All experiments were conducted three times for reproducibility.
(§5) Cell proliferation rate (%)=OD550 (sample)/OD550 (control)
(§6) The normal cell line NIH3T3 (mouse embryo fibroblast cell-line) and the cancerous cell line B16F10 (mouse melanoma cell-line) were separately grown in 96-well plates and incubated for 48 hours with predetermined concentrations of each of the compounds. After additional incubation with MTT, absorbance at 550 nm was read using a microplate reader. Absorbance is an index accounting for a number of viable cells and was used to calculate cell proliferation rates according to the following formula. All experiments were conducted three times for reproducibility.
(§7) Cell proliferation rate (%)=OD550(sample)/OD550(control)
(§8) Then, LD50 (Lethal Dose 50) values were calculated on the basis of changes in the cell proliferation rate.

[5] = tested on: NIH3T3 (mouse embryo fibroblast cell-line); test: MTT cytotoxicity assay, normal cell line; assay type: cell-based; settings: conclusion from LD50, MTT
Protocol: as §4, §5, §6, §7, §8

[6] = concentrations up to 125 μM, read-out: IC50 Acetylcholine esterase Mean ± SEM
[7] = concentrations up to 125 μM, read-out: IC50 Butyrylcholine esterase Mean ± SEM

Structure (SMILES)	IC50 [1]	Inhibition type BACE1 [1]	BACE1 IC50 compared with quercetin, in words [1]	SI selectivity index (BChE/AChE) [3]	other results
Cc1cc2c(c(C)c1CCO)C(=O)[C@H](C)[C@H]2O [Compound 7, (2R,3R)-pterosin C]	15.9 ± 3.5 µM	mixed	lower than or similar to that of quercetin	0.88	Inhibition type Acetylcholinesterase [2]: noncompetitive; Inhibition type Butyrylcholinesterase [3]: mixed
Cc1cc2c(c(C)c1CCO)C(=O)[C@@H](C)[C@H]2O [Compound 8, (2S,3R)-pterosin C]	14.1 ± 1.6 µM	noncompetitive	lower than or similar to that of quercetin	3.5	Inhibition type Acetylcholinesterase [2]: mixed; Inhibition type Butyrylcholinesterase [3]: noncompetitive
Cc1c(CCO[C@@H]2OC(CO)[C@@H](O)[C@H](O)C2O)c(CO)cc2c1C(=O)[C@@H](C)C2 (stereo partly drawn) [Compound 19, (2S)-pteroside P]				0.57	
CC(=O)C1(/C(C)=C\C2=CC(=O)C(C)C2)CC1 (stereo not drawn) [Compound 2, 3-[2-(1-Acetylcyclopropyl)-1-propenyl)-5-methyl-2-cyclopenten-1-one]	19.4 ± 1.7 µM	mixed type	lower than or similar to that of quercetin	0.83	IC50 [2]: 87.7 ± 1.6 µM; AChE inhibition / IC50 rank, in words [2]: highest; IC50 [3]: 72.9 ± 0.73 µM; LD50 Cancer cell 816F10 [4]: 688 µM; toxicity to cancerous cells, in words [4]: slightly toxic; toxicity to normal cells, in words [5]: almost non-toxic; toxicity to normal cells, in words ([5]; listed as compound of Chemical Formula 2): non-toxic
Cc1cc2c(c(C)c1CCO[C@@H]1OC(CO)[C@@H](O)[C@H](O)C1O)C(=O)[C@](C)(O)C2 (single isomer, unassigned; (-)) [Compound 18, (−)-pteroside N]				1.7	
Cc1cc2c(c(C)c1CCO[C@@H]1OC(CO)[C@@H](O)[C@H](O)C1O)C(=O)C(C)(C)[C@H]2O (stereo partly drawn) [Compound 17, (3S)-pteroside D]		mixed	lower than or similar to that of quercetin	0.70	
Cc1cc2c(c(C)c1CCO)C(=O)[C@H](C)C2 [Compound 4, (2R)-pterosin B]	18 ± 2 µM	noncompetitive		3.0	Inhibition type Acetylcholinesterase [2]: mixed; AChE inhibition / IC50 rank, in words [2]: excellent; Inhibition type Butyrylcholinesterase [3]: noncompetitive
Cc1cc2c(c(C)c1CCO)C(=O)C(C)(C)C2 [Compound 11, pterosin Z]	48.7 ± 3.2 µM			1.7	LD50 Cancer cell 816F10 [4]: 618 ± 71 µM; toxicity to cancerous cells, in words [4]: slightly toxic; toxicity to normal cells, in words [5]: slightly toxic
Cc1cc2c(c(C)c1CCO)C(=O)[C@](C)(CO)C2 [Compound 3, (2S)-pterosin A]	64.9 ± 5.1 µM			12	IC50 [2, 6]: 88.7 ± 2.6 µM; IC50 [3, 7]: 57.3 ± 3.3 µM; LD50 Cancer cell 816F10 [4]: 522 ± 25 µM; toxicity to cancerous cells, in words [4]: slight cytotoxicity
Cc1cc2c(c(C)c1CCO[C@@H]1OC(CO)[C@@H](O)[C@H](O)C1O)C(=O)[C@H](C)C2 (stereo partly drawn) [Compound 14, (2R)-pteroside B]		noncompetitive			Inhibition type Acetylcholinesterase [2]: mixed; AChE inhibition / IC50 rank, in words [2]: lowest; also recorded: excellent; Inhibition type Butyrylcholinesterase [3]: mixed; BChE inhibition / IC50 rank, in words [3]: excellent; IC50 [3, 7]: 17 µM
Cc1cc2c(c(C)c1CCO[C@@H]1OC(CO)[C@@H](O)[C@H](O)C1O)C(=O)[C@](C)(CO)C2 (stereo partly drawn) [Compound 12, (2S)-pteroside A]					IC50 [3, 7]: 199 ± 0.25 µM
Cc1cc2c(c(C)c1CCO[C@@H]1OC(CO)[C@@H](O)[C@H](O)C1O)C(=O)[C@H](C)[C@H]2O (stereo partly drawn) [Compound 16, (2R,3R)-pteroside C]		mixed	lower than or similar to that of quercetin	1.4	AChE inhibition / IC50 rank, in words [2]: excellent; BChE inhibition / IC50 rank, in words [3]: lowest
Cc1cc2c(c(C)c1CCO[C@@H]1OC(CO)[C@@H](O)[C@H](O)C1O)C(=O)[C@@H](C)[C@H]2O (stereo partly drawn) [Compound 15, (2S,3R)-pteroside C]				1.4	IC50 [2, 6]: 9.57 ± 0.32 µM; IC50 [3, 7]: 12 ± 0.14 µM
Cc1cc2c(c(C)c1CCO)C(=O)[C@@H](C)[C@@H]2O [Compound 6, (2S,3S)-pterosin C]			lower than or similar to that of quercetin		BChE inhibition / IC50 rank, in words [3]: excellent
Cc1cc2c(c(C)c1CCO[C@@H]1OC(CO)[C@@H](O)[C@H](O)C1O)C(=O)C(C)(C)C2 (stereo partly drawn) [Compound 20, pteroside Z]				0.24	BChE inhibition / IC50 rank, in words [3]: excellent
Cc1cc2c(c(C)c1CCO)C(=O)[C@](C)(COC1O[C@H](CO)[C@@H](O)[C@H](O)[C@H]1O)C2 (stereo partly drawn) [Compound 13, (2S)-pteroside A2]	94.4 ± 4.5 µM			3.0	IC50 [3]: 119 ± 2.5 µM
Cc1c(CCO)c(CO)cc2c1C(=O)[C@@H](C)C2 [Compound 10, (2S)-pterosin P]	40.8 ± 4.1 µM			3.1	
Cc1cc2c(c(C)c1CCO)C(=O)C(C)(C)[C@@H]2O [Compound 9, (3R)-Pterosin D]	56.3 ± 3.9 µM				IC50 [3]: > 12 µM; BChE inhibition / IC50 rank, in words [3]: highest
